# Test results reported in patent US8513227B2, “Inhibition of inflammatory cytokine production with tanshinones” (The Feinstein Institute for Medical Research, priority 2006, dated 2013).
# Read-outs that look alike come from different tables or passages of the source.
# Assays:
# HMGB1 [1] = assay: LPS-induced HMGB1 release in RAW 264.7 macrophage cultures (western blot); type: cell-based, murine; conditions: for IC50: Mus musculus, read-out: estimated IC50 for LPS-induced HMGB1 release
# Description: Cell culture. […] Rendon-Mitchell et al. 2003). Murine macrophages were pre-cultured in RPMI 1640 medium (Gibco BRL, Grand Island, N.Y.) supplemented with 10% fetal bovine serum (FBS) and 2 mmol/L glutamine. Human peripheral blood mononuclear cells (HuPBMCs) were isolated from the blood of healthy donors (Long Island Blood Bank, Melville, N.Y.) by density gradient centrifugation through Ficoll (Ficoll-Paque PLUS, Pharmacia, Piscataway, N.J.), and cultured in RPMI 1640 supplemented with 10% heat-inactivated human serum/0.2 mM L-glutamine as previously described (Rendon-Mitchell et al. 2003). LPS stimulation. Adherent macrophages or monocytes were gently washed with, and cultured in, serum-free OPTI-MEM I medium two hours before stimulation with bacterial endotoxin (lipopolysaccharide, LPS, E. coli 0111:B4, Sigma-Aldrich). […] Rendon-Mitchell et al. 2003; Wang et al. 1999). HMGB1 western blotting analysis. The levels of HMGB1 in the culture medium or serum were determined by western blotting analysis as previously described (Chen et al. 2004; Rendon-Mitchell et al. 2003; Wang et al. 1999). The relative band intensity was quantified using NIH image 1.59 software to determine HMGB1 levels with reference to standard curves generated with purified HMGB1.
# TNF = assay: LPS-mediated TNF secretion in RAW 264.7 macrophages (ELISA); type: cell-based, murine; conditions: concentrations up to 10 μM, FIG. 5C
# Experimental: Cell culture. Murine macrophage-like RAW 264.7 cells were obtained from the American Type Culture Collection (ATCC, Rockville, Md.), and primary peritoneal macrophages were isolated from Balb/C mice (male, 7-8 weeks, 20-25 grams) at 2-3 days after intraperitoneal injection of 2 ml thioglycollate broth (4%) as previously described (Chen et al. 2004; Rendon-Mitchell et al. 2003). Murine macrophages were pre-cultured in RPMI 1640 medium (Gibco BRL, Grand Island, N.Y.) supplemented with 10% fetal bovine serum (FBS) and 2 mmol/L glutamine. Human peripheral blood mononuclear cells (HuPBMCs) were isolated from the blood of healthy donors (Long Island Blood Bank, Melville, N.Y.) by density gradient centrifugation through Ficoll (Ficoll-Paque PLUS, Pharmacia, Piscataway, N.J.), and cultured in RPMI 1640 supplemented with 10% heat-inactivated human serum/0.2 mM L-glutamine as previously described (Rendon-Mitchell et al. 2003). LPS stimulation. […] The levels of TNF in the culture medium or serum were determined using commercial enzyme linked immunosorbent assay (ELISA) kits (Catalog no. MTA00, R & D Systems, Minneapolis, Minn.) with reference to standard curves of purified recombinant TNF at various dilutions as previously described (Chen et al. 2004; Rendon-Mitchell et al. 2003; Wang et al. 2006).
# acetylcholinesterase = acetylcholinesterase (Homo sapiens, UniProt P22303); conditions: literature; cited from earlier work
# HMGB1 [2] = conditions: Wang et al. 2006; cited from earlier work
# nitric oxide = conditions: Wang et al. 2006; cited from earlier work
# lethal sepsis = assay: Lethal sepsis induced by cecal ligation and puncture (CLP) in Balb/C mice; type: in vivo; conditions: 12 mg/kg, repeated at 24, 48, 72, 96 hours post onset; vehicle 50%; N=14, p>0.05
# Experimental: Animal models of endotoxemia and sepsis. This study was approved and performed in accordance with the guidelines for the care and use of laboratory animals at the Feinstein Institute for Medical Research, Manhasset, N.Y. Endotoxemia was induced in Balb/C mice (male, 7-8 weeks) by intraperitoneal injection of bacterial endotoxin (LPS, 15 mg/kg) as previously described (Chen et al. 2005; Wang et al. 1999; Wang et al. 2006). Sepsis was induced in male Balb/C mice (7-8 weeks, 20-25 g) or Sprague-Dawley rats (290-310 g) by cecal ligation and puncture (CLP) as previously described (Wang et al. 2006; Yang et al. 2002b). Herbal components were administered intraperitoneally into mice at indicated doses and time points, and mice were monitored for survival for up to two weeks. In parallel experiments, mice were euthanized to collect blood at 28 h (following two doses of herbal components at −0.5 and +24 h) after endotoxemia, and at 52 h (following two doses of herbal components at +24 and +48 h) after CLP.
# TNF ELISA. The levels of TNF in the culture medium or serum were determined using commercial enzyme linked immunosorbent assay (ELISA) kits (Catalog no. MTA00, R & D Systems, Minneapolis, Minn.) with reference to standard curves of purified recombinant TNF at various dilutions as previously described (Chen et al. 2004; Rendon-Mitchell et al. 2003; Wang et al. 2006).
# Nitric oxide assay. The levels of nitric oxide in the culture medium were determined indirectly by measuring NO^2− production with a colorimetric assay based on the Griess reaction (Rendon-Mitchell et al. 2003). NO2-concentrations were determined with reference to a standard curve generated with sodium nitrite at various dilutions.
# HMGB1 western blotting analysis. The levels of HMGB1 in the culture medium or serum were determined by western blotting analysis as previously described (Chen et al. 2004; Rendon-Mitchell et al. 2003; Wang et al. 1999). The relative band intensity was quantified using NIH image 1.59 software to determine HMGB1 levels with reference to standard curves generated with purified HMGB1.
# Tissue histology. At 48 hours after CLP, mice were euthanized in CO2 Chamber, and immediately perfused (transcardially) with phosphate buffer saline and 4% paraformaldehyde. Various tissues were harvested, sectioned, and stained with hematoxylin and eosin for morphology evaluation.
# phospholipase A2 = conditions: Kim et al. 2002; cited from earlier work
# [3] = superpharmacological concentrations (1-25 μM), data not shown
# [4] = RAW264.7, RAW 264.7 cells, 16 h after LPS, western blot, estimated
# Chain of acetylcholinesterase (P22303 32-614, species assumed): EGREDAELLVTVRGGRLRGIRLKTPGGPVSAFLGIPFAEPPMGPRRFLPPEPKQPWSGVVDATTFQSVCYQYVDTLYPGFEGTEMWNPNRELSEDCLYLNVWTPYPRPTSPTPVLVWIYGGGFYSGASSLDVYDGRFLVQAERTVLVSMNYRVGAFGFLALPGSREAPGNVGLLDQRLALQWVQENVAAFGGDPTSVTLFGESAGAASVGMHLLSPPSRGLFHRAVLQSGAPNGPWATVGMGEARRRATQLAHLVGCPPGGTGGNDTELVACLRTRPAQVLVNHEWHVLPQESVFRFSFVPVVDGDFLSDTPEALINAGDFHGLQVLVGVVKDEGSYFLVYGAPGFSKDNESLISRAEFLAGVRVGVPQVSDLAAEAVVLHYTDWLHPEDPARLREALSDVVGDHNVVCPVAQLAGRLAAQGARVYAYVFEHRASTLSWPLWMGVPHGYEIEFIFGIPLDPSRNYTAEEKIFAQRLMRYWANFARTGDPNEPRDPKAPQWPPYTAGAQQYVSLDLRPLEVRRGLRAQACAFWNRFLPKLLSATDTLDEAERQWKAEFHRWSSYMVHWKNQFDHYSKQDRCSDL
smiles,measurement,setting,value
CC(=O)Oc1ccccc1C(=O)O [aspirin],effect on LPS-induced HMGB1 release,HMGB1 [1]; [3],"None of the tested cyclooxygenase inhibitors (e.g., aspirin, ibuprofen, and indomethacin) significantly affected"
C[C@]12CCC(=O)C=C1CC[C@@H]1[C@@H]2C(=O)C[C@@]2(C)[C@H]1CC[C@]2(O)C(=O)CO [cortisone],effect on LPS-induced HMGB1 release,"HMGB1 [1]; concentrations up to 10 μM, FIG. 5B",failed to reduce
same,effect on LPS-mediated TNF secretion,TNF,effectively attenuated
"CC1COC2=C1C(=O)C(=O)c1c2ccc2c1CCCC2(C)C (centres unmarked) [cryptotanshinone, 1,6,6-Trimethyl-1,2,6,7,8,9-hexahydro-phenanthro[1,2-b]furan-10,11-dione]",IC50,"HMGB1 [1]; RAW264.7, 16 h",< 25 µM
same,inhibition of acetylcholinesterase,acetylcholinesterase,can inhibit
COc1cc(/C=C/C(=O)O)ccc1O [ferulic acid],effect on LPS-induced HMGB1 release,HMGB1 [2],failed to affect
same,effect on LPS-induced nitric oxide production,nitric oxide,effectively attenuated
CC(C)Cc1ccc(C(C)C(=O)O)cc1 (centres unmarked) [ibuprofen],effect on LPS-induced HMGB1 release,HMGB1 [1]; [3],"None of the tested cyclooxygenase inhibitors (e.g., aspirin, ibuprofen, and indomethacin) significantly affected"
COc1ccc2c(c1)c(CC(=O)O)c(C)n2C(=O)c1ccc(Cl)cc1 [indomethacin],effect on LPS-induced HMGB1 release,HMGB1 [1]; [3],"None of the tested cyclooxygenase inhibitors (e.g., aspirin, ibuprofen, and indomethacin) significantly affected"
"Cc1coc2c1C(=O)C(=O)c1c-2ccc2c1CCCC2(C)C [tanshinone IIA, 1,6,6-Trimethyl-6,7,8,9-tetrahydro-phenanthro[1,2-b]furan-10,11-dione]","survival rate, lethal sepsis",lethal sepsis,61%
same,IC50,HMGB1 [1]; [4],< 25 µM
Cc1coc2c1C(=O)C(=O)c1c-2ccc2c(C)cccc12 [tanshinone I],"survival rate, lethal sepsis",lethal sepsis,57%
same,IC50,HMGB1 [1]; [4],< 25 µM
same,inhibition of phospholipase A2,phospholipase A2,can inhibit
